Laboratory results: US6960589B2, “Benzimidazoles that are useful in treating sexual dysfunction” (Abbott Laboratories, priority 2001, dated 2005)
Values joined by “and” are separate entries in the source; they are usually repeats but may differ in a detail not shown here. Identical values can stand only once.

Columns and labels:
[1] = tested on: Wistar rats; experiment: Rat penile erection model; assay type: in vivo; conditions: for Induction of penile erections in rats (result in words): subcutaneous administration, doses of 0.01 μmol/kg to 0.10 μmol/kg
Procedure: Wistar rats were used as a primary animal model to study penile erection in vivo. All experiments were carried out between 9:00 AM and 3:00 PM in a diffusely illuminated testing room with a red light. Animals were weighed and allowed to adapt to the testing room for 60 minutes before the beginning of experiments. Rats were placed individually in a transparent cage (20×30×30 cm) after drug injection.
(L)-Ascorbic acid in saline (1 mg/mL) was used as vehicle. Twelve animals were used per dose.

[2] = tested on: Male Fitch ferrets; set-up: species or system ferret; conditions: in vivo, sc
Procedure: Male Fitch ferrets (body weights 1.0-1.5 kg) were obtained from Marshall Farms. Ferrets were fasted overnight before experimentation. Apomorphine or a compound of the present invention was administrated subcutaneously; animals were placed individually in observation cages and the drug-induced emesis and signs of nausea were determined (by direct observation) for a period of 90 minutes following drug injection. Nausea was characterized by behaviors such as licking, gagging, backing, head burying, and intense abdominal grooming. Emesis was usually preceded by these behaviors and was characterized by rhythmic abdominal contractions which were associated with vomiting or retching movement.
Sterile saline was used as vehicle. Six animals were used per dose.

With `c1ccc(N2CCN(Cc3nc4ccccc4[nH]3)CC2)nc1` [2-[(4-pyridin-2-ylpiperazin-1-yl)methyl]-1H-benzimidazole] the “Induction of penile erections in rats (result in words)” value [1] was “induced statistically significant penile erections” and the “Induction of emesis in ferrets (result in words)” value [2] was “did not induce emesis”.
With `Oc1ccc(N2CCN(Cc3nc4ccccc4[nH]3)CC2)nc1` [6-[4-(1H-benzimidazol-2-ylmethyl)piperazin-1-yl]pyridin-3-ol] the “Induction of penile erections in rats (result in words)” value [1] was “induced statistically significant penile erections” and the melting point was 144 to 145 °C.
With `CN1CCc2cccc3c2[C@H]1Cc1ccc(O)c(O)c1-3` [Apomorphine, (6aR) 5,6,6a,7-tetrahydro-6-methyl-4H-dibenzo[de,g]quinoline-10,11-diol, reference compound] the “Incidence (%) of penile erection (animals exhibiting 1 or more erections)” value ([1]; rats, dose 0.1 μmol/kg, observed 60 minutes after dosing) was 83% and 93%.
`c1cnc(N2CCN(Cc3nc4ccccc4[nH]3)CC2)nc1` [Example 2, 2-[(4-pyrimidin-2-ylpiperazin-1-yl)methyl]-1H-benzimidazole] gave a melting point of 198 to 200 °C.
Compound `N#Cc1cccnc1N1CCN(Cc2nc3ccccc3[nH]2)CC1` [Example 4, 2-[4-(1H-benzimidazol-2-ylmethyl)piperazin-1-yl]nicotinonitrile] has a melting point of 208 to 210 °C.
Compound `c1ccc2[nH]c(CN3CCN(c4nccs4)CC3)nc2c1` [Example 7, 2-{[4-(1,3-thiazol-2-yl)piperazin-1-yl]methyl}-1H-benzimidazole] has a melting point of 203 to 205 °C.
For `O=C(N1CCCC1)n1c(CN2CCN(c3ccccn3)CC2)nc2ccccc21` [Example 9, 2-[(4-pyridin-2-ylpiperazin-1-yl)methyl]-1-(pyrrolidin-1-ylcarbonyl)-1H-benzimidazole], the melting point was 120 to 121 °C.
Work on `CN(C)C(=O)n1c(CN2CCN(c3ccccn3)CC2)nc2ccccc21` [Example 10, N,N-dimethyl-2-[(4-pyridin-2-ylpiperazin-1-yl)methyl]-1H-benzimidazole-1-carboxamide] yielded a melting point of 174 to 176 °C.
In the case of `N#Cc1ccccc1N1CCN(Cc2nc3ccccc3[nH]2)CC1` [Example 12, 2-[4-(1H-benzimidazol-2-ylmethyl)piperazin-1-yl]benzonitrile], the melting point is reported as 236 to 237 °C.
`Fc1ccccc1N1CCN(Cc2nc3ccccc3[nH]2)CC1` [Example 14, 2-{[4-(2-fluorophenyl)piperazin-1-yl]methyl}-1H-benzimidazole] showed a melting point of 262 to 264 °C.
Work on `Oc1ccc(N2CCN(Cc3nc4ccccc4[nH]3)CC2)cc1` [Example 17, 4-[4-(1H-benzimidazol-2-ylmethyl)piperazin-1-yl]phenol] yielded a melting point of 206 to 209 °C.
For `CSc1ccccc1N1CCN(Cc2nc3ccccc3[nH]2)CC1` [Example 18, 2-({4-[2-(methylthio)phenyl]piperazin-1-yl}methyl)-1H-benzimidazole], the melting point was 214 to 216 °C.
`CCOc1ccccc1N1CCN(Cc2nc3ccccc3[nH]2)CC1` [Example 19, 2-{[4-(2-ethoxyphenyl)piperazin-1-yl]methyl}-1H-benzimidazole] showed a melting point of 95 to 100 °C.
`Oc1ccccc1N1CCN(Cc2nc3ccccc3[nH]2)CC1` [Example 20, 2-[4-(1H-benzimidazol-2-ylmethyl)piperazin-1-yl]phenol] gave a melting point of 208 to 216 °C.
For `CC1CN(c2ccccn2)CCN1Cc1nc2ccccc2[nH]1` (centres unmarked) [Example 24, 2-[(2-methyl-4-pyridin-2-ylpiperazin-1-yl)methyl]-1H-benzimidazole], the melting point was 207 to 209 °C.
Compound `C[C@H]1CN(c2ccccn2)CCN1Cc1nc2ccccc2[nH]1` [Example 25, 2-{[(2S)-2-methyl-4-pyridin-2-ylpiperazin-1-yl]methyl}-1H-benzimidazole] has a melting point of 149 to 151 °C.
`C[C@@H]1CN(c2ccccn2)CCN1Cc1nc2ccccc2[nH]1` [Example 26, 2-{[(2R)-2-methyl-4-pyridin-2-ylpiperazin-1-yl]methyl}-1H-benzimidazole] showed a melting point of 151 to 153 °C.
For `Fc1cccnc1N1CCN(Cc2nc3ccccc3[nH]2)CC1` [Example 28, 2-{[4-(3-fluoropyridin-2-yl)piperazin-1-yl]methyl}-1H-benzimidazole], the melting point was 210 to 212 °C.
